Assay results from patent US20250381155A1, “USE OF 2-HYDROXYBENZYLAMINE IN THE TREATMENT AND PREVENTION OF PULMONARY HYPERTENSION” (Vanderbilt University, priority 2016, published 2025).
“Also recorded” adds a separate entry of the source.

Experiments:
SIRT3 = assay: Lysine acetylation and SIRT3 content of the mitochondrial proteome from treated BMPR2^R899X mice (Western blot); assay type: in vivo; details: 1 g/L 2HOBA in drinking water
Procedure: (§1) To assess mitochondrial respiration in cultured PMVECs, cells were seeded in growth media in a 96-well plate from Seahorse Biosciences (Bilerica, MA) at a seeding density of 50,000 live cells per well. The following day, cells were washed and placed in Seahorse Assay Media supplemented with specific substrates (1 gm/L glucose, 2 mM L-glutamine). After equilibration, oxygen consumption rates were measured on a Seahorse XFe96 analyzer using the Mito Stress Test protocol. For mitochondrial protein measurements, mitochondria were isolated from fresh murine liver tissue as previously described.^24
(§2) All animal studies were approved by the Vanderbilt IACUC. Male and female FVB/N mice were 10-16 weeks of age. BMPR2^R899X mice were generated and maintained as previously described.^24,25 For 2HOBA studies, 1 gm/L was administered in the drinking water, with water bottles protected from light and water changes every 2-3 days.
Because sirtuin expression and activity is tightly regulated by substrate availability, nutrient intake, physical activity, and interacting signaling pathways operating between organ systems, the role of SIRT3 in BMPR2-mediated PAH is best studied in a murine model system. […] The mitochondrial proteome was assessed for acetylation of lysine residues, with SIRT3 inactivation leading to lysine hyperacetylation. […]

BMPR2^R899X mice [1] = assay: Glutamine synthetase in liver mitochondria and circulating glutamine in treated BMPR2^R899X mice; assay type: in vivo
Procedure: as §1, §2
(§3) Having shown that impaired BMPR2 function is associated with loss of SIRT3 function, and that this can be prevented with 2HOBA treatment to scavenge damaging lipid peroxidation products, the present inventors next wished to assess the in vivo metabolic dysfunction downstream from BMPR2 mutation, the relationship to PAH, and the effect of 2HOBA treatment. […]

WT mice = assay: Glutamine synthetase in liver mitochondria of treated WT mice; assay type: in vivo; details: 2HOBA treatment
Procedure: as §1, §2, §3

BMPR2^R899X mice [2] = assay: Development of PAH in BMPR2^R899X mice (total pulmonary resistance, cardiac output by echocardiography, invasive RVSP); assay type: in vivo
Procedure: as §2
Echocardiography was performed on anesthetized mice (isoflurane anesthesia) to determine cardiac output. Right ventricular systolic pressure (RVSP) was invasively measured as described, using bromoethanol as the anesthetic.^24,25
All statistics were performed using GraphPad Prism 6.0 or Microsoft Excel unless otherwise specified. For animal experiments, sample sizes were chosen based upon previous experiments with approximately 80% of transgenic animals showing RVSP>30 mm Hg. Animals were randomly assigned to treatment groups by cage. For all measurements, investigators were blind to treatments and genotype until data analysis. Data were analyzed using two-tailed t-test, or two-way ANOVA with Tukey's post-test, as indicated. Significance was set at α<0.05 after correction for multiple comparisons.
Having shown that impaired BMPR2 function is associated with loss of SIRT3 function, and that this can be prevented with 2HOBA treatment to scavenge damaging lipid peroxidation products, the present inventors next wished to assess the in vivo metabolic dysfunction downstream from BMPR2 mutation, the relationship to PAH, and the effect of 2HOBA treatment. The present inventors hypothesized that 2HOBA would prevent the development of PAH in BMPR2^R899X mice and would have a beneficial modulatory effect on glutamine metabolism in vivo. Expression of the BMPR2^R899X allele was sufficient to drive upregulation of glutamine synthetase in skeletal muscle (FIG. 10) and in liver mitochondria (FIG. 7A) compared to WT.

[3] = Long-term safety, continuous dosing in mice; assay type: in vivo; details: over 12 months of continuous dosing in mice
[4] = pre-clinical animal studies; cited from earlier work
BMPR2 mutant PMVEC = assay: Extracellular glutamine to glucose flux ratio in BMPR2 mutant PMVEC; assay type: cell-based; details: low-dose chetomin
Procedure: (§4) The present inventors used previously characterized WT and BMPR2 mutant (BMPR2^R899X) pulmonary microvascular endothelial cells isolated from conditionally immortalized murine lines generated on the ImmortoMouse background,^20 and WT and BMPR2 mutant PMVECs from a parent immortalized human line stably expressing either a WT or BMPR2 mutant construct transfected into the parent line and maintained under selection with G418S. […]
(§5) Glucose and lactate levels were measured using the YSI 2300 Stat Glucose and Lactate Analyzer (Yellow Springs, OH). High performance liquid chromatography (HPLC) was used to quantify amino acid concentrations, with norvaline as an internal standard. […] Flux rates were calculated using the ETA software package.^22
(§6) The present inventors next wished to determine the molecular events downstream from BMPR2 mutation that contribute to glutamine reliance. […] Then WT and BMPR2 mutant PMVEC was treated with chetomin, a pharmacologic inhibitor of HIF, and assessed glucose and glutamine uptake by quantifying the extracellular flux ratio of glutamine to glucose. […]

WT PMVEC = assay: Extracellular glutamine to glucose flux ratio in WT PMVEC; assay type: cell-based; details: low-dose chetomin
Procedure: as §4, §5, §6

[5] = 2HOBA vs vehicle-treated mutants

NCc1ccccc1O [2HOBA, 2-hydroxybenzylamine]
total SIRT3 content in the mitochondria (SIRT3): without affecting
lysine acetylation in the mitochondrial proteome (SIRT3; Western diet, isolated mitochondria): significantly reduced; also recorded: normalized
circulating (plasma) glutamine (BMPR2^R899X mice [1]; 2HOBA-treated BMPR2^R899X mice compared to 2HOBA-treated WT mice): significantly lower; also recorded: significantly reduces
glutamine synthetase in liver mitochondria (BMPR2^R899X mice [1]; BMPR2^R899X mice, 2HOBA treatment): reduced
glutamine synthetase in liver mitochondrial fraction (WT mice): not substantially
development of pulmonary hypertension as measured by total pulmonary resistance (BMPR2^R899X mice [2]; 2HOBA compared to vehicle-treated mice): prevented the development of pulmonary hypertension; also recorded: to a level statistically indistinguishable from WT
cardiac output (BMPR2^R899X mice [2]; [5]): modestly increased; also recorded: trends toward improved
right ventricular systolic pressure (RVSP) (BMPR2^R899X mice [2]; [5]): decreased; also recorded: trends toward a decrease
toxicity [3]: no significant toxicity
safety profile [4]: excellent safety profile

CN1C(=O)[C@]2(Cc3cn([C@]45C[C@@]67SS[C@@](CO)(C(=O)N6[C@H]4Nc4ccccc45)N(C)C7=O)c4ccccc34)SS[C@@]1(CO)C(=O)N2C [chetomin]
glutamine to glucose flux ratio (BMPR2 mutant PMVEC): significantly reduced
glutamine to glucose flux ratio (WT PMVEC): no effect; also recorded: essentially unaffected
